From publication PMC9220251, “Modulation of the 20S Proteasome Activity by Porphyrin Derivatives Is Steered through Their Charge Distribution” (Biomolecules, 2022)

Experiments:
[1] = system: T1, human 20S proteasome (h20S); experiment: STD-NMR and WaterLOGSY; type: binding; conditions: 50 mM HEPES, 100 mM NaCl, 1 mM DTT, 298 K; TMPC 175 μM
T1 construct: gene PSMA6; purified 20S core particle, purchased from Boston Biochem; 28 subunits in four heptameric rings; no regulatory particle; with Proteasome subunit beta type-6; Proteasome subunit beta type-7; Proteasome subunit beta type-3; Proteasome subunit beta type-2; Proteasome subunit beta type-1; Proteasome subunit beta type-4

[2] = molecular target: T1, human 20S proteasome (h20S); experiment: Suc-LLVY-AMC hydrolysis, global fit of kcat and Km against TMPC (two-state model, n = […], m = […]); type: biochemical; conditions: competitive inhibitory site, substrate-free enzyme in basal state A; model also has three cooperative allosteric sites and state B with separate constants (KAU, KAL, KBU, KBL, KBI); 50 mM Tris-HCl pH

In the case of `C[n+]1ccc(-c2c3nc(c(-c4cc[n+](C)cc4)c4ccc([nH]4)c4ccc([nH]4)c(-c4cc[n+](C)cc4)c4ccc2[nH]4)C=C3)cc1` [TMPC], the “STD-NMR and WaterLOGSY” value [1] is reported as “clearly indicate that the ligand interacts with the h20S” and the Kd [2] is reported as 1000 nM.
